Experimental data: patent US12415785B2, “Compound modulators of sting” (CTXT PTY LTD, priority 2019, dated 2025)
Read-outs that look alike come from different tables or passages of the source.

How the values were obtained:
human STING (WT) = human STING (WT) (Homo sapiens (Human), UniProt Q86WV6, H232R); assay: Differential scanning fluorimetry (DSF), huSTING (WT); type: binding; conditions: for ΔTm at 100 µM: read-out: DSF huSTING (WT) ΔTm (° C.)
Method: (§1) Biophysical experiments were performed with three different recombinant human STING protein variants designated according to allelic nomenclature of Yi et al., (2013). […] These were ligated into a modified pET43a E. coli expression vector designed to encode N-terminal His tag followed by tobacco etch virus protease (TEV) cleavage site and a STING gene sequence. The resulting protein sequences for the three allelic variants are listed below: […] Cultures were then cooled to 16° C. and protein expression induced by the addition of isopropyl β-D-1-thiogalactopyranoside to a final concentration of 0.5 mM and the cultures shaken overnight for further 16 hours. Following expression, cell cultures were centrifuged at 5000×g for 20 min and cell pellet stored frozen at −70° C. Protein purification was initiated by thawing the cell pellet in Lysis buffer (25 mM Tris-HCl pH 8.0, 300 mM NaCl, 5 mM DTT, 2 mM MgCl2, 10 mM imidazole, 0.5 mg/ml lysozyme, benzonase endonuclease [EMD Millipore], 1 mM PMSF, complete protease inhibitor tablets EDTA-free [Roche]) using a ratio of 7 ml of buffer per 1 g of cells. Cells were further lysed by 3 passes through an ice cooled Avestin C5 cell crusher and then centrifuged at 48,000×g at 4° C. […] The IMAC column was then sequentially washed with IMAC Wash buffer 1 and IMAC Wash buffer 2 (25 mM Tris-HCl pH 8.0, 300 mM NaCl, 5 mM DTT, 20 mM Imidazole) and bound His-TEV-hSTING protein eluted with IMAC Elution buffer (25 mM Tris-HCl pH 8.0, 300 mM NaCl, 5 mM DTT, 250 mM Imidazole). […] Differential scanning fluorimetry (DSF) is a rapid screening method for identifying low-molecular-weight ligands that bind and, in doing so, stabilize (or sometimes destabilize) purified proteins (Niesen 2007). DSF monitors thermal unfolding of protein in the presence of a fluorescent dye and is typically performed using a real-time PCR instrument. The temperature at which a protein unfolds is measured by an increase in the fluorescence of a dye with affinity for hydrophobic parts of the protein that are gradually being exposed during unfolding. The fluorescence of the dye is quenched in aqueous environments, but when the dye associates with hydrophobic sites on unfolded protein, its fluorescence increases. The fluorescence intensity is plotted as a function of the temperature, generating a sigmoidal curve that can be described by a two-state transition. The inflection point of the transition curve (Tm) is calculated using simple equations such as that of Boltzmann. Thermal stability of STING protein (with and without bound ligand) was measured using previously described methodology (Seabrook & Newman, 2013), with samples tested in triplicate using 96-well PCR microplate (AB Gene, ABGAB-0600/W). […] Sealed plates were placed into Bio-Rad CFX96/C1000 thermocycler and FRET scanning mode (λ^excitation of 490 nm and reads at a λ^emission of 570 nm). Melting curves were recorded from 20° C. to 100° C. in 0.5° C. increments every 30 seconds with a read at each increment. Data were analysed using “Meltdown analysis” protocol described by Rosa (2015).

[1] = target: human HAQ isoform of STING (THP-1 STING Lucia ISG cells) (Homo sapiens (Human), UniProt Q86WV6, G230A/H232R/R293Q/R71H); assay: THP-1 STING Lucia ISG reporter cell line assay; type: cell-based; conditions: 24 h incubation, QUANTI-Luc luminescence
human HAQ isoform of STING (THP-1 STING Lucia ISG cells), sequence (Q86WV6 whole entry R71H/G230A/H232R/R293Q, canonical isoform): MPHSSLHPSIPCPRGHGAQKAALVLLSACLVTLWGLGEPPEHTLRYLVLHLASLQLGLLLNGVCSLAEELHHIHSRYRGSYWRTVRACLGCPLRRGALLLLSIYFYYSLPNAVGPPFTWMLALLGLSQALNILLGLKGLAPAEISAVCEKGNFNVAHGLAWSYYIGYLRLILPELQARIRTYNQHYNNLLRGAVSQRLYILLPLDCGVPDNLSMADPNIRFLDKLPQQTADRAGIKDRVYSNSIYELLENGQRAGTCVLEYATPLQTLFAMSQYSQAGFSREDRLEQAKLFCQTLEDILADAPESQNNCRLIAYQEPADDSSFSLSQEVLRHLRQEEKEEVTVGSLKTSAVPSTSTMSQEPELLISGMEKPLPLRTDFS
Method: (§2) THP-1 STING Lucia ISG cells (InvivoGen #thpI-isg) were cultured in RPMI-1640 containing 2 mM L-glutamine, 25 mM HEPES, 100 μg/mL Normocin (InvivoGen) and 10% heat-inactivated FBS. Cells were seeded at a density of 7×10^5 cells/mL, maintained at 37° C./5% CO2, and passaged every 3-4 days. Selection pressure was maintained by the addition of 100 μg/mL Zeocin every second passage.
(§3) Assay conditions: cells were harvested and resuspended at a concentration of 5×10^5 cells/mL in fresh growth media. Of this cell preparation 20 μL per well was dispensed into 384 well cell culture plates (Greiner, #781098X) and incubated at 37° C./5% CO2 for 2 hours. Concentration Response Curves (commonly 11 doses) were prepared by 2.5 fold serial dilution starting from 10 mM compound stock solution in DMSO. Compound dilutions were transferred into the cell culture plates using a pintool (0.1 μL transfer), control wells were matched for DMSO. Positive control wells received ML RR—S2 CDA (Med Chem Express HY12885B) in 5 μL of media to a final concentration of 40 μM. All other wells received additional 5 μL of media only to equalise volume. The plates were incubated for 24 h at 37° C./5% CO2.
(§4) For the detection step, QUANTI-Luc (InvivoGen #rep-qlc1) was prepared according to manufacturer's instruction and 10 μL were added per well to the culture plates. Plates were shaken for ten seconds on an orbital shaker and left in the dark at room temperature for two minutes, before luminescence was read on a Perkin Elmer Envision plate reader.
(§5) Data analysis: Luminescence raw data was normalised % activity relative to the signal of the positive control wells and negative control wells which were not treated with compound. The following formula was used to calculate normalised % activity from raw signals: % activity=(sample−negative)/(positive−negative)
(§6) The THP-1 STING Lucia ISG cell EC50 provides an assessment of activity at the human HAQ isoform of STING. For assessing compound activity against the WT human STING isoform, an equivalent method was conducted where the cells used were THP-1-Dual KI-hSTING-R232 (InvivoGen #thpd-r232).

human STING (HAQ) [2] = target: human STING (HAQ) (Homo sapiens, UniProt Q86WV6, G230A/H232R/R293Q); assay: Differential scanning fluorimetry (DSF), huSTING (HAQ); type: binding; conditions: read-out: DSF huSTING (HAQ) ΔTm (° C.)
human STING (HAQ) (Homo sapiens, UniProt Q86WV6, G230A/H232R/R293Q), sequence (Q86WV6 whole entry G230A/H232R/R293Q, looked up): as the sequence (Q86WV6 whole entry R71H/G230A/H232R/R293Q, canonical isoform) above, with H71R counted along it
Method: as §1

[3] = target: WT human STING isoform (THP-1-Dual KI-hSTING-R232 cells) (Homo sapiens (Human), UniProt Q86WV6, H232R); assay: THP-1-Dual KI-hSTING-R232 reporter cell line assay; type: cell-based; conditions: 24 h incubation, QUANTI-Luc luminescence
WT human STING isoform (THP-1-Dual KI-hSTING-R232 cells), sequence (Q86WV6 whole entry H232R, canonical isoform): as the sequence (Q86WV6 whole entry R71H/G230A/H232R/R293Q, canonical isoform) above, with H71R, A230G, Q293R counted along it
Method: as §2, §3, §4, §5, §6

human STING (HAQ) [4] = assay: Differential scanning fluorimetry (DSF), huSTING (HAQ); type: binding; conditions: 2 μM protein, compound 100 μM; Tm with ligand minus Tm of protein alone (1% DMSO)
Method: as §1

[5] = 2 μM protein, compound 100 μM, Tm with ligand minus Tm of protein alone (1% DMSO)

human STING (WT), sequence (Q86WV6 other isoform, or with tags, fused parts or gaps, stated change not applied): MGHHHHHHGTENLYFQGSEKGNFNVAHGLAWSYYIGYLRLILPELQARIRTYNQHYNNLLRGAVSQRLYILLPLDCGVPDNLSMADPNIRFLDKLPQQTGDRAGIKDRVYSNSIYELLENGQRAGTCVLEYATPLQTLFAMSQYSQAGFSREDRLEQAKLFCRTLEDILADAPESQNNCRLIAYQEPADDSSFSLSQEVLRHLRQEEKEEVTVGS

Row | Compound | ΔTm at 100 µM (human STING (WT); [5]) [°C] | EC50 [1] [µM] | ΔTm at 100 µM (human STING (HAQ) [2]; [5]) [°C] | EC50 [3] [µM] | ΔTm at 100 µM (human STING (WT)) [°C] | ΔTm at 100 µM (human STING (HAQ) [2]) [°C] | DSF huSTING (WT) ΔTm (° C.) (human STING (WT); [5]) [°C] | DSF huSTING (HAQ) ΔTm (° C.) (human STING (HAQ) [4]) [°C]
1 | NC(=O)c1ccc2c(c1)nc(-c1ccc(Cl)cc1C(=O)O)n2CCn1c(-c2ccc(Cl)cc2C(=O)O)nc2cc(C(N)=O)ccc21 [Example 39, 6,6′-(Ethane-1,2-diylbis(5-carbamoyl-1H-benzo[d]imidazole-1,2-diyl))bis(3-chlorobenzoic acid)] | -4.35 | > 40 | 0.86 | > 40 | – | – | – | –
2 | COc1c(C(N)=O)ccc2c1nc(-c1ccc(C#N)cc1C(=O)O)n2CCn1c(-c2ccc(C#N)cc2C(=O)O)nc2c(OC)c(C(N)=O)ccc21 [Example 51, 2-(5-Carbamoyl-1-(2-(5-carbamoyl-2-(2-carboxy-4-cyanophenyl)-4-methoxy-1H-benzo[d]imidazol-1-yl)ethyl)-4-methoxy-1H-benzo[d]imidazol-2-yl)-5-cyanobenzoic acid] | -0.85 | – | 1.6 | – | – | – | – | –
3 | COC(=O)c1cc(Br)ccc1-c1nc2c(OC)c(C(N)=O)ccc2n1CCn1c(-c2ccc(Br)cc2C(=O)OC)nc2c(OC)c(C(N)=O)ccc21 [Example 13, Dimethyl 6,6′-(ethane-1,2-diylbis(5-carbamoyl-4-methoxy-1H-benzo[d]imidazole-1,2-diyl))bis(3-bromobenzoate)] | – | > 40 | – | > 40 | – | – | – | –
4 | COc1c(C(N)=O)ccc2c1nc(-c1cc(Cl)c(Cl)cc1C(=O)O)n2CCn1c(-c2cc(Cl)c(Cl)cc2C(=O)O)nc2c(OC)c(C(N)=O)ccc21 [Example 8, 6,6′-(Ethane-1,2-diylbis(5-carbamoyl-4-methoxy-1H-benzo[d]imidazole-1,2-diyl))bis(3,4-dichlorobenzoic acid)] | – | 0.54 | – | 0.426 | 6.38 | 23.2 | – | –
5 | COc1c(C(N)=O)ccc2c1nc(-c1ccc(Cl)cc1-c1nn[nH]n1)n2CCn1c(-c2c(F)cc(Cl)cc2C(=O)O)nc2c(OC)c(C(N)=O)ccc21 [Example 47, 2-(5-Carbamoyl-1-(2-(5-carbamoyl-2-(4-chloro-2-(2H-tetrazol-5-yl)phenyl)-4-methoxy-1H-benzo[d]imidazol-1-yl)ethyl)-4-methoxy-1H-benzo[d]imidazol-2-yl)-5-chloro-3-fluorobenzoic acid] | – | 0.497 | – | 0.549 | – | – | – | –
6 | COc1c(C(N)=O)ccc2c1nc(-c1c(C(=O)O)ccc(Cl)c1F)n2CCn1c(-c2c(C(=O)O)ccc(Cl)c2F)nc2c(OC)c(C(N)=O)ccc21 [Example 12, 2,2′-(Ethane-1,2-diylbis(5-carbamoyl-4-methoxy-1H-benzo[d]imidazole-1,2-diyl))bis(4-chloro-3-fluorobenzoic acid)] | 4.56 | 2.65 | 28.3 | 2.55 | – | – | – | –
7 | COc1c(C(N)=O)ccc2c1nc(-c1ccc(Br)cc1C(=O)O)n2CCn1c(-c2ccc(Br)cc2C(=O)O)nc2c(OC)c(C(N)=O)ccc21 [Example 14, 6,6′-(Ethane-1,2-diylbis(5-carbamoyl-4-methoxy-1H-benzo[d]imidazole-1,2-diyl))bis(3-bromobenzoic acid)] | 4.74 | 1.31 | 9.15 | 1.99 | – | – | – | –
8 | COc1c(C(N)=O)ccc2c1nc(-c1cc(F)ccc1C(=O)O)n2CCn1c(-c2cc(F)ccc2C(=O)O)nc2c(OC)c(C(N)=O)ccc21 [Example 28, 2,2′-(Ethane-1,2-diylbis(5-carbamoyl-4-methoxy-1H-benzo[d]imidazole-1,2-diyl))bis(4-fluorobenzoic acid)] | -6.6 | 12.6 | -2.19 | > 40 | – | – | – | –
9 | NC(=O)c1ccc2c(c1)nc(-c1c(Br)cccc1C(=O)O)n2CCn1c(-c2c(Br)cccc2C(=O)O)nc2cc(C(N)=O)ccc21 (single isomer, unassigned) [Example 29.2, 2,2′-(Ethane-1,2-diylbis(5-carbamoyl-1H-benzo[d]imidazole-1,2-diyl))bis(3-bromobenzoic acid)] | – | > 40 | – | > 40 | – | – | −6.70 | −5.65
10 | COc1c(C(N)=O)ccc2c1nc(-c1cc(Cl)ccc1C(=O)O)n2CCn1c(-c2cc(Cl)ccc2C(=O)O)nc2c(OC)c(C(N)=O)ccc21 [Example 7, 2,2′-(Ethane-1,2-diylbis(5-carbamoyl-4-methoxy-1H-benzo[d]imidazole-1,2-diyl))bis(4-chlorobenzoic acid)] | -2.49 | 1.55 | 5.88 | 1.43 | – | – | – | –
11 | COc1c(C(N)=O)ccc2c1nc(-c1ccc(F)cc1C(=O)O)n2CCn1c(-c2ccc(F)cc2C(=O)O)nc2c(OC)c(C(N)=O)ccc21 [Example 27, 6,6′-(Ethane-1,2-diylbis(5-carbamoyl-4-methoxy-1H-benzo[d]imidazole-1,2-diyl))bis(3-fluorobenzoic acid)] | 2.62 | 11.3 | 6.17 | 10.5 | – | – | – | –
12 | COc1c(C(N)=O)ccc2c1nc(-c1c(I)cccc1C(=O)O)n2CCn1c(-c2c(I)cccc2C(=O)O)nc2c(OC)c(C(N)=O)ccc21 (single isomer, unassigned) [Example 19.2, 2,2′-(Ethane-1,2-diylbis(5-carbamoyl-4-methoxy-1H-benzo[d]imidazole-1,2-diyl))bis(3-iodobenzoic acid)] | – | 14.9 | – | 11.7 | – | – | 6.58 | 21.66
